Measurements reported in patent publication US8765775B2, “Anti-angiogenic compounds” (Universitaet Zuerich, priority 2008, dated 2014).
“And” between values parts separate entries of the source, which are not always exact repeats. Identical values can stand only once. Blank lines part the entries; values can stand above or below the molecule they belong to.

Key:
[1] = biological target: T1, EphB4 (Homo sapiens, UniProt P54760); assay: IC50 and % inhibition (Table 3); assay type: biochemical; settings: for inhibition at 10 µM / inhibition at 20 µM: read-out: % inhibition at indicated concentration C; for IC50: Table 3, repeated determinations, read-out: IC50
T1 sequence (P54760 16-987): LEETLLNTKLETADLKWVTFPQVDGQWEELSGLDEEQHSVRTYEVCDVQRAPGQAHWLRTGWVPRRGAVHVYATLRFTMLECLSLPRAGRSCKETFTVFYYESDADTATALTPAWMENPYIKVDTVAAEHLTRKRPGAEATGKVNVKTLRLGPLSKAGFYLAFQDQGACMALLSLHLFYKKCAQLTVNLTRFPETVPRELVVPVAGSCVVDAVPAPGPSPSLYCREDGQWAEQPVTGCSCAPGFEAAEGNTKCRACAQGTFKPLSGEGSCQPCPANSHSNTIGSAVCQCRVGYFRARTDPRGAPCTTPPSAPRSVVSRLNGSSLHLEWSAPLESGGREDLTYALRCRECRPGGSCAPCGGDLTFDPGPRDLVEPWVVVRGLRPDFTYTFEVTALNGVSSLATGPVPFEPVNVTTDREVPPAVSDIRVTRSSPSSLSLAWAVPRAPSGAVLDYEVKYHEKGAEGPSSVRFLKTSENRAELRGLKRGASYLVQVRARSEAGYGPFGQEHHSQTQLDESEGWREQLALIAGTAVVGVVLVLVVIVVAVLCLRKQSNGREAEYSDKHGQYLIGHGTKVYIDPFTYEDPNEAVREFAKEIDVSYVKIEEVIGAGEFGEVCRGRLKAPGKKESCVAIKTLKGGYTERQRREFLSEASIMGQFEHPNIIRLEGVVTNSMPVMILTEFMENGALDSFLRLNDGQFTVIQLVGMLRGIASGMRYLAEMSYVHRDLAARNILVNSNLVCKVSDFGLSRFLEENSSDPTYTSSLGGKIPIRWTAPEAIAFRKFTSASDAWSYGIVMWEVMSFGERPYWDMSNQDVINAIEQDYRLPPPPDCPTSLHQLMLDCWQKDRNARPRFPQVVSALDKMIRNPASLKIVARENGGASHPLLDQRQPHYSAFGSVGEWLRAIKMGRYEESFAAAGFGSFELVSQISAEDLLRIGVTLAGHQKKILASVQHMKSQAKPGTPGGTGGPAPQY

[2] = biological target: T1, EphB4; assay: Panvera Z'Lyte FRET-based enzymatic assay; settings: for Inhibitory activity in the enzymatic assay (in words): Z'Lyte
Procedure: In vitro kinase activity was measured using the Panvera Z'Lyte Tyr2 kinase assay PV3191 (Invitrogen, USA), according to the manufacturer's instructions. […] The reaction is performed at room temperature for 1 hour.

[3] = biological target: T2, myc-tagged full-length human EphB4 (Homo sapiens, UniProt P54760); assay: Phospho-EphB4 ELISA of CHO cells (EphB4 autophosphorylation); assay type: cell-based; settings: in CHO cells, at 20 μM
T2 construct: stably transfected with myc-tagged full-length human EphB4; expressed in transfected cells; host or cells: CHO-FRT cells (Flip-In System, Invitrogen)
T2 sequence (P54760 16-987): T1 sequence (P54760 16-987)
Procedure: Phospho-EphB4 ELISA of CHO cells. The ELISA assay was performed as follows: Chinese hamster ovary (CHO)-FRT cells are stably transfected with myc-tagged full-length human EphB4 according to the Flip-In System protocol (Invitrogen, USA). […] Cells of this clone are preincubated with EphB4 inhibitors for 15 minutes and then stimulated with preclustered ephrinB2-Fc for 45 minutes at 37° C. Cells are lysed, transferred to a 96-well plate coated with anti-myc antibody and incubated overnight at 4° C. After incubation with anti-phosphotyrosine antibody, reactions are developed with BM Blue peroxydase substrate, and autophosphorylation of EphB4 is quantified by measuring absorption at 450 nm.

SMILES: CCCn1c(-c2ccccc2)cn2c3c(=O)[nH]c(=O)n(C)c3nc12 [Compound 4]
% inhibition at indicated concentration C ([1]; C = 10 μM, 10 µM): 58% and 54%
inhibition at 10 µM ([1]; C = 10 μM): 62%
IC50 [1]: 8 µM and 9 µM
IC50 [2]: 1.9 µM
Inhibitory activity in the enzymatic assay (in words) [2]: low-micromolar
Cell-based assay percent inhibition [3]: neg.

SMILES: COCCCn1c(-c2ccccc2)cn2c3c(=O)[nH]c(=O)n(C)c3nc12 [Compound 6]
% inhibition at indicated concentration C ([1]; C = 10 μM, 10 µM): 46%
inhibition at 10 µM ([1]; C = 10 μM): 49%
IC50 [2]: 50 µM
Inhibitory activity in the enzymatic assay (in words) [2]: mid-micromolar range
inhibition at 20 µM ([3]; read-out: Cell-based assay percent inhibition): 28%

SMILES: CC1(C)Cc2c(sc(NC(=O)Nc3ccccc3)c2C(N)=O)CO1 [Compound 9, reference compound]
IC50 ([2]; read-out: Enzymatic assays IC50 Z′Lyte, FRET-based, 10 μM ATP, 1% DMSO, room temperature 1 hour): 76 µM

SMILES: COc1ccc(-n2c(-c3ccc(F)cc3)cn3c4c(=O)[nH]c(=O)n(C)c4nc23)c(OC)c1 [Compound 16]
% inhibition at indicated concentration C ([1]; C = 10 μM, 10 µM): 50% and 28%

SMILES: COc1ccc(OC)c(-n2c(-c3ccc(F)cc3)cn3c4c(=O)[nH]c(=O)n(C)c4nc23)c1 [Compound 17]
% inhibition at indicated concentration C ([1]; C = 10 μM, 10 µM): 62%
inhibition at 10 µM ([1]; C = 10 μM): 72%

SMILES: O=c1[nH]c(=O)n(Cc2ccccc2)c2nc3[nH]c(-c4ccccc4)cn3c12 [Compound 18, 1-Benzyl-7-phenyl-1H-imidazo[2,1-f]purine-2,4(3H,9H)-dione]
melting point: 393 to 395 °C

SMILES: Cn1c(-c2ccccc2)cn2c3c(=O)[nH]c(=O)n(Cc4ccccc4)c3nc12 [Compound 19, 1-Benzyl-8-methyl-7-phenyl-1H-imidazo[2,1-f]purine-2,4(3H,8H)-dione]
melting point: 306 to 308 °C

SMILES: CNc1ccc(-c2cn3c4c(=O)[nH]c(=O)n(Cc5ccccc5)c4nc3n2C)cc1 [Compound 20, 1-Benzyl-8-methyl-7-p-methylaminophenyl-1H-imidazo[2,1-f]purine-2,4(3H,8H)-dione]
melting point: 288 to 290 °C

SMILES: O=c1[nH]c(=O)n(Cc2ccccc2)c2nc3n(-c4ccccc4)c(-c4ccc(F)cc4)cn3c12 [Compound 21, 1-Benzyl-7-p-fluorophenyl-8-phenyl-1H-imidazo[2,1-f]purine-2,4(3H,8H)-dione]
melting point: 250 to 252 °C

SMILES: COc1ccccc1-n1c(-c2ccc(F)cc2)cn2c3c(=O)[nH]c(=O)n(Cc4ccccc4)c3nc12 [Compound 22, 1-Benzyl-7-p-fluorophenyl-8-(2-methoxyphenyl)-1H-imidazo[2,1-f]purine-2,4(3H,8H)-dione]
melting point: 251 to 253 °C

SMILES: Cn1c(=O)[nH]c(=O)c2c1nc1n(CCCCO)c(-c3ccc(NCCCCO)cc3)cn21 [Compound 29]
melting point: 205 to 207 °C
% inhibition at indicated concentration C ([1]; C = 20 μM, 20 µM): 50% and 62% and 37% and 34%

SMILES: COc1ccccc1-n1c(-c2ccc(F)cc2)cn2c3c(=O)[nH]c(=O)[nH]c3nc12 [Compound 30, 7-p-Fluorophenyl-8-(2-methoxyphenyl)-1H-imidazo[2,1-f]purine-2,4(3H,8H)-dione]
IC50 [1]: 4.6 µM and 6.2 µM

SMILES: COC(=O)Cn1c(=O)[nH]c(=O)c2c1nc1n(-c3ccccc3OC)c(-c3ccc(F)cc3)cn21 [Compound 32, 8-(2-Methoxyphenyl)-1-(methoxy-2-oxoethyl)-7-(p-Fluorophenyl)-1H-imidazo[2,1-f]purine-2,4(3H,8H)-dione]
IC50 [1]: 9.5 µM and 8.9 µM

SMILES: COc1ccccc1-n1c(-c2ccc(F)cc2)cn2c3c(=O)[nH]c(=O)n(CSC)c3nc12 [Compound 34, 8-(2-Methoxyphenyl)-1-(methylthiomethyl)-7-(p-Fluorophenyl)-1H-imidazo[2,1-f]purine-2,4(3H,8H)-dione]
IC50 [1]: 5.1 µM and 6.4 µM

SMILES: COc1ccccc1-n1c(-c2ccc(F)cc2)cn2c3c(=O)[nH]c(=O)n(CS(C)(=O)=O)c3nc12 [Compound 35, 8-(2-Methoxyphenyl)-1-(methylsulfonylmethyl)-7-(p-Fluorophenyl)-1H-imidazo[2,1-f]purine-2,4(3H,8H)-dione]
IC50 [1]: 7.9 µM and 7.1 µM

SMILES: O=c1[nH]c(=O)n(Cc2ccccc2)c2nc3n(-c4ccccc4)c(-c4ccc(F)cc4)c(Br)n3c12 [Compound 36, 1-Benzyl-6-bromo-7-p-fluorophenyl-8-phenyl-1H-imidazo[2,1-f]purine-2,4(3H,8H)-dione]
melting point: 276 to 278 °C
% inhibition at indicated concentration C ([1]; C = 10 μM, 10 µM): 10% and 4%

Continued, values first:

melting point: 301 to 303 °C
% inhibition at indicated concentration C ([1]; C = 10 μM, 10 µM): 11%
inhibition at 10 µM ([1]; C = 10 μM): 15%
SMILES: COc1ccccc1-n1c(-c2ccccc2)cn2c3c(=O)[nH]c(=O)n(Cc4ccccc4)c3nc12 [Compound 25, 1-Benzyl-8-(2-methoxyphenyl)-7-phenyl-1H-imidazo[2,1-f]purine-2,4(3H,8H)-dione]

melting point: 323 to 325 °C
SMILES: COc1ccccc1-n1c(-c2ccc([N+](=O)[O-])cc2)cn2c3c(=O)[nH]c(=O)n(C)c3nc12 [Compound 27, 8-(2-Methoxyphenyl)-1-methyl-7-p-nitrophenyl-1H-imidazo[2,1-f]purine-2,4(3H,8H)-dione]

melting point: 303 to 305 °C
% inhibition at indicated concentration C ([1]; C = 20 μM, 20 µM): 17%
inhibition at 20 µM ([1]; C = 20 μM): 13%
SMILES: COc1ccccc1-n1c(-c2ccc(C#N)cc2)cn2c3c(=O)[nH]c(=O)n(C)c3nc12 [Compound 28, 8-(2-Methoxyphenyl)-1-methyl-7-p-cyanophenyl-1H-imidazo[2,1-f]purine-2,4(3H,8H)-dione]

melting point: 274 to 276 °C
SMILES: COc1ccccc1-n1c(-c2ccccc2)c(Br)n2c3c(=O)[nH]c(=O)n(C)c3nc12 [Compound 37, 6-Bromo-8-(2-methoxyphenyl)-1-methyl-7-phenyl-1H-imidazo[2,1-f]purine-2,4(3H,8H)-dione]

melting point: 302 to 304 °C
SMILES: CCCCn1c(-c2ccccc2)c(Br)n2c3c(=O)[nH]c(=O)n(C)c3nc12 [Compound 38, 6-Bromo-8-butyl-1-methyl-7-phenyl-1H-imidazo[2,1-f]purine-2,4(3H,8H)-dione]

% inhibition at indicated concentration C ([1]; C = 20 μM, 20 µM): 30%
inhibition at 20 µM ([1]; C = 20 μM): 21%
SMILES: COc1ccccc1-n1c(-c2ccccc2)c(C#N)n2c3c(=O)[nH]c(=O)n(C)c3nc12 [Compound 41, 6-Cyano-8-(2-methoxyphenyl)-1-methyl-7-phenyl-1H-imidazo[2,1-f]purine-2,4(3H,8H)-dione]

% inhibition at indicated concentration C ([1]; C = 20 μM, 20 µM): 23% and 19% and 13%
inhibition at 20 µM ([1]; C = 20 μM): 12%
SMILES: COc1ccccc1-n1c(-c2ccc(C(=O)O)cc2)cn2c3c(=O)[nH]c(=O)n(C)c3nc12 [Compound 44, 8-(2-Methoxyphenyl)-1-methyl-7-p-carboxyphenyl-1H-imidazo[2,1-f]purine-2,4(3H,8H)-dione]
